Test results published in US11793849B2, “Method of Chinese herbal medicine extract used for treating multiple diseases caused by drug resistant bacteria infection” (priority 2016, dated 2023).
Where two headings read alike, the source gives them in different places.

Tested on: MDRAB
Assay: Checkerboard assay (combined-use MIC, FIC)
Format: cell-based, Acinetobacter baumannii
Settings: for FIC, all strains / MIC50 of the antibiotic after combined use / MIC90 of the antibiotic after combined use / reduction of the antibiotic's MIC50 vs single use / reduction of the antibiotic's MIC90 vs single use / share of strains with FIC ≤ 0.5: 20 MDRABs; for MIC: Acinetobacter baumannii, EA=60% ethanol extract, read-out: single-use MIC
Procedure: Test methods of the sensibilization effects of the test product to similar antibiotics: it is operated by referring to a checkerboard assay recommended by NCCLS.
The checkerboard assay is performed in a 96-pore sterile culture plate.
Calculation of a Fractional Inhibitory Concentration (FIC): FIC=S20b combined-use MIC/S20b single-use MIC+antibiotic combined-use MIC/antibiotic single-use MIC. By calculating the FIC, the combined antibacterial interaction between the EA and the antibiotic is evaluated, with synergistic effect for FIC≤0.5, additive effect for 0.5<FIC≤1, indifferent effect for 1<FIC≤2 and antagonistic effect for FIC>2. According to a sterile growth pore, the optimum concentration ratio between the EA and the antibiotic is founded out. At last, the effect of the EA to strengthen the efficacy of the antibiotic is evaluated.

[1] = antibiotic with 60% ethanol extract
[2] = antibiotic with 95% ethanol extract
[3] = antibiotic with EA (10% ethanol extract)
[4] = antibiotic with EA (water extract)

With `CC(C)(O/N=C(\C(=O)N[C@@H]1C(=O)N2C(C(=O)[O-])=C(C[n+]3ccccc3)CS[C@H]12)c1csc(N)n1)C(=O)O` [CAZ, Ceftazidime] the “FIC, all strains” value [1] was no more than 2, the “MIC50 of the antibiotic after combined use” value (from here on “MIC50 of the antibiotic”) [1] was 128 µg/mL and the “MIC90 of the antibiotic after combined use” value (from here on “MIC90 of the antibiotic”) [1] was 256 µg/mL. The “reduction of the antibiotic's MIC50 vs single use” value [1] was 75%, the “reduction of the antibiotic's MIC90 vs single use” value [1] was 50% and the “share of strains with FIC ≤ 0.5” value [1] was 10%. The “FIC, all strains” value [2] was no more than 2, the “MIC50 of the antibiotic” value [2] was 128 µg/mL and the “MIC90 of the antibiotic” value [2] was 256 µg/mL. For the same molecule, the “reduction of the antibiotic's MIC50 vs single use” value [2] was 75%, the “reduction of the antibiotic's MIC90 vs single use” value [2] was 50% and the “share of strains with FIC ≤ 0.5” value [2] was 10%. The “FIC, all strains” value [3] was no more than 2, the “MIC50 of the antibiotic” value [3] was 128 µg/mL and the “MIC90 of the antibiotic” value [3] was 256 µg/mL. For the same molecule, the “reduction of the antibiotic's MIC50 vs single use” value [3] was 75%, the “reduction of the antibiotic's MIC90 vs single use” value [3] was 50% and the “share of strains with FIC ≤ 0.5” value [3] was 30%. The “FIC, all strains” value [4] was no more than 2, the “MIC50 of the antibiotic” value [4] was 128 µg/mL and the “MIC90 of the antibiotic” value [4] was 256 µg/mL. The “reduction of the antibiotic's MIC50 vs single use” value [4] was 75%, the “reduction of the antibiotic's MIC90 vs single use” value [4] was 50% and the “share of strains with FIC ≤ 0.5” value [4] was 20%. It also gave an MIC (strain A1) of 128 µg/mL, an MIC (strain A2) of 512 µg/mL and an MIC (strain A3) of 512 µg/mL. It also gave an MIC (strain A4) of 256 µg/mL, an MIC (strain A5) of 64 µg/mL and an MIC (strain A6) of 1020 µg/mL. For the same molecule, the MIC (strain A7) was 1020 µg/mL, the MIC (strain A8) was 512 µg/mL and the MIC (strain A9) was 512 µg/mL. It also gave an MIC (strain A10) of 512 µg/mL, an MIC (strain A11) of 512 µg/mL and an MIC (strain A12) of 512 µg/mL. For the same molecule, the MIC (strain A13) was 256 µg/mL, the MIC (strain A14) was 512 µg/mL and the MIC (strain A15) was 256 µg/mL. For the same molecule, the MIC (strain A16) was 512 µg/mL, the MIC (strain A17) was 256 µg/mL and the MIC (strain A18) was 512 µg/mL. The MIC (strain A19) was 256 µg/mL, the MIC (strain A20) was 512 µg/mL and the “combined-use MIC” value (strain A1, EA (10% ethanol extract) with CAZ) was 64 µg/mL. For the same molecule, the “combined-use MIC” value (strain A1, EA (60% ethanol extract) + CAZ combined) was 64 µg/mL, the “combined-use MIC” value (strain A1, EA (P. clypearia 95% ethanol extract) combined with CAZ) was 64 µg/mL and the “combined-use MIC” value (strain A1, EA (water extract) with CAZ) was 64 µg/mL. For the same molecule, the “combined-use MIC” value (strain A2, EA (10% ethanol extract) with CAZ) was 256 µg/mL, the “combined-use MIC” value (strain A2, EA (60% ethanol extract) + CAZ combined) was 128 µg/mL and the “combined-use MIC” value (strain A2, EA (P. clypearia 95% ethanol extract) combined with CAZ) was 128 µg/mL. The “combined-use MIC” value (strain A2, EA (water extract) with CAZ) was 256 µg/mL, the “combined-use MIC” value (strain A3, EA (10% ethanol extract) with CAZ) was 256 µg/mL and the “combined-use MIC” value (strain A3, EA (60% ethanol extract) + CAZ combined) was 128 µg/mL. For the same molecule, the “combined-use MIC” value (strain A3, EA (P. clypearia 95% ethanol extract) combined with CAZ) was 128 µg/mL, the “combined-use MIC” value (strain A3, EA (water extract) with CAZ) was 256 µg/mL and the “combined-use MIC” value (strain A4, EA (10% ethanol extract) with CAZ) was 64 µg/mL. For the same molecule, the “combined-use MIC” value (strain A4, EA (60% ethanol extract) + CAZ combined) was 64 µg/mL, the “combined-use MIC” value (strain A4, EA (P. clypearia 95% ethanol extract) combined with CAZ) was 64 µg/mL and the “combined-use MIC” value (strain A4, EA (water extract) with CAZ) was 32 µg/mL. The “combined-use MIC” value (strain A5, EA (10% ethanol extract) with CAZ) was 32 µg/mL, the “combined-use MIC” value (strain A5, EA (60% ethanol extract) + CAZ combined) was 32 µg/mL and the “combined-use MIC” value (strain A5, EA (P. clypearia 95% ethanol extract) combined with CAZ) was 32 µg/mL. The “combined-use MIC” value (strain A5, EA (water extract) with CAZ) was 32 µg/mL, the “combined-use MIC” value (strain A6, EA (10% ethanol extract) with CAZ) was 512 µg/mL and the “combined-use MIC” value (strain A6, EA (60% ethanol extract) + CAZ combined) was 512 µg/mL. The “combined-use MIC” value (strain A6, EA (P. clypearia 95% ethanol extract) combined with CAZ) was 512 µg/mL, the “combined-use MIC” value (strain A6, EA (water extract) with CAZ) was 512 µg/mL and the “combined-use MIC” value (strain A7, EA (10% ethanol extract) with CAZ) was 512 µg/mL. The “combined-use MIC” value (strain A7, EA (60% ethanol extract) + CAZ combined) was 256 µg/mL, the “combined-use MIC” value (strain A7, EA (P. clypearia 95% ethanol extract) combined with CAZ) was 256 µg/mL and the “combined-use MIC” value (strain A7, EA (water extract) with CAZ) was 512 µg/mL. For the same molecule, the “combined-use MIC” value (strain A8, EA (10% ethanol extract) with CAZ) was 256 µg/mL, the “combined-use MIC” value (strain A8, EA (60% ethanol extract) + CAZ combined) was 256 µg/mL and the “combined-use MIC” value (strain A8, EA (P. clypearia 95% ethanol extract) combined with CAZ) was 256 µg/mL. The “combined-use MIC” value (strain A8, EA (water extract) with CAZ) was 256 µg/mL, the “combined-use MIC” value (strain A9, EA (10% ethanol extract) with CAZ) was 128 µg/mL and the “combined-use MIC” value (strain A9, EA (60% ethanol extract) + CAZ combined) was 64 µg/mL. For the same molecule, the “combined-use MIC” value (strain A9, EA (P. clypearia 95% ethanol extract) combined with CAZ) was 256 µg/mL, the “combined-use MIC” value (strain A9, EA (water extract) with CAZ) was 64 µg/mL and the “combined-use MIC” value (strain A10, EA (10% ethanol extract) with CAZ) was 256 µg/mL. The “combined-use MIC” value (strain A10, EA (60% ethanol extract) + CAZ combined) was 128 µg/mL, the “combined-use MIC” value (strain A10, EA (P. clypearia 95% ethanol extract) combined with CAZ) was 256 µg/mL and the “combined-use MIC” value (strain A10, EA (water extract) with CAZ) was 256 µg/mL. The “combined-use MIC” value (strain A11, EA (10% ethanol extract) with CAZ) was 128 µg/mL, the “combined-use MIC” value (strain A11, EA (60% ethanol extract) + CAZ combined) was 64 µg/mL and the “combined-use MIC” value (strain A11, EA (P. clypearia 95% ethanol extract) combined with CAZ) was 64 µg/mL. The “combined-use MIC” value (strain A11, EA (water extract) with CAZ) was 256 µg/mL, the “combined-use MIC” value (strain A12, EA (10% ethanol extract) with CAZ) was 128 µg/mL and the “combined-use MIC” value (strain A12, EA (60% ethanol extract) + CAZ combined) was 128 µg/mL. For the same molecule, the “combined-use MIC” value (strain A12, EA (P. clypearia 95% ethanol extract) combined with CAZ) was 128 µg/mL, the “combined-use MIC” value (strain A12, EA (water extract) with CAZ) was 128 µg/mL and the “combined-use MIC” value (strain A13, EA (10% ethanol extract) with CAZ) was 128 µg/mL. The “combined-use MIC” value (strain A13, EA (60% ethanol extract) + CAZ combined) was 128 µg/mL, the “combined-use MIC” value (strain A13, EA (P. clypearia 95% ethanol extract) combined with CAZ) was 128 µg/mL and the “combined-use MIC” value (strain A13, EA (water extract) with CAZ) was 128 µg/mL. For the same molecule, the “combined-use MIC” value (strain A14, EA (10% ethanol extract) with CAZ) was 64 µg/mL, the “combined-use MIC” value (strain A14, EA (60% ethanol extract) + CAZ combined) was 256 µg/mL and the “combined-use MIC” value (strain A14, EA (P. clypearia 95% ethanol extract) combined with CAZ) was 256 µg/mL. For the same molecule, the “combined-use MIC” value (strain A14, EA (water extract) with CAZ) was 64 µg/mL, the “combined-use MIC” value (strain A15, EA (10% ethanol extract) with CAZ) was 128 µg/mL and the “combined-use MIC” value (strain A15, EA (60% ethanol extract) + CAZ combined) was 128 µg/mL. The “combined-use MIC” value (strain A15, EA (P. clypearia 95% ethanol extract) combined with CAZ) was 128 µg/mL, the “combined-use MIC” value (strain A15, EA (water extract) with CAZ) was 128 µg/mL and the “combined-use MIC” value (strain A16, EA (10% ethanol extract) with CAZ) was 128 µg/mL. For the same molecule, the “combined-use MIC” value (strain A16, EA (60% ethanol extract) + CAZ combined) was 128 µg/mL, the “combined-use MIC” value (strain A16, EA (P. clypearia 95% ethanol extract) combined with CAZ) was 256 µg/mL and the “combined-use MIC” value (strain A16, EA (water extract) with CAZ) was 64 µg/mL. The “combined-use MIC” value (strain A17, EA (10% ethanol extract) with CAZ) was 64 µg/mL, the “combined-use MIC” value (strain A17, EA (60% ethanol extract) + CAZ combined) was 128 µg/mL and the “combined-use MIC” value (strain A17, EA (P. clypearia 95% ethanol extract) combined with CAZ) was 128 µg/mL. The “combined-use MIC” value (strain A17, EA (water extract) with CAZ) was 32 µg/mL, the “combined-use MIC” value (strain A18, EA (10% ethanol extract) with CAZ) was 256 µg/mL and the “combined-use MIC” value (strain A18, EA (60% ethanol extract) + CAZ combined) was 128 µg/mL. For the same molecule, the “combined-use MIC” value (strain A18, EA (P. clypearia 95% ethanol extract) combined with CAZ) was 128 µg/mL, the “combined-use MIC” value (strain A18, EA (water extract) with CAZ) was 256 µg/mL and the “combined-use MIC” value (strain A19, EA (10% ethanol extract) with CAZ) was 64 µg/mL. For the same molecule, the “combined-use MIC” value (strain A19, EA (60% ethanol extract) + CAZ combined) was 128 µg/mL, the “combined-use MIC” value (strain A19, EA (P. clypearia 95% ethanol extract) combined with CAZ) was 128 µg/mL and the “combined-use MIC” value (strain A19, EA (water extract) with CAZ) was 128 µg/mL. The “combined-use MIC” value (strain A20, EA (10% ethanol extract) with CAZ) was 128 µg/mL, the “combined-use MIC” value (strain A20, EA (60% ethanol extract) + CAZ combined) was 256 µg/mL and the “combined-use MIC” value (strain A20, EA (P. clypearia 95% ethanol extract) combined with CAZ) was 256 µg/mL. For the same molecule, the “combined-use MIC” value (strain A20, EA (water extract) with CAZ) was 64 µg/mL.
